Laboratory results published in US8338468B2, “Microbicidal composition” (ISP Investments Inc., priority 2005, dated 2012).
“And” between values parts separate entries of the source, which are not always exact repeats. Identical values can stand only once. Like-named read-outs stand apart in the source and are kept apart here. Blank lines part the entries; values can stand above or below the compound they belong to.

Columns and labels:
Experiment in all cases: Synergy test (MIC) in Ringer's Solution
Assay type in all cases: cell-based
Staphylococcus aureus = conditions: 30° C., about 10^5 microbes per ml; for MIC: Staphylococcus aureus
Method: (§1) Synergy tests were conducted using microbiological standard methods. Ringer's Solution (Merck, VWR) was used for testing bacteria, yeast and mould species. In jars 100 ml aliquots of sterile Ringer Solution are dosed with the preservatives and a known inoculum of the single test species is added. A control sample containing no preservative is also used to ascertain the biocide effect on the inoculum. The prepared jars were incubated at 30° C. Aliquots are streaked out at regular intervals on specific nutrient agar so that an estimate of kill time can be determined at the same time as effective concentration. TSA (tryptic soy agar) was used for bacteria; MEA (malt extract agar) was used for yeast and moulds. The plates were visually evaluated for microbial growth to determine the MIC after various incubation times at 30° C. The synergy of the combinations of the present invention was determined against four bacteria, Pseudomonas aeruginosa, Escherichia coli, Proteus Mirabilis, and Staphylococcus aureus, a yeast, Candida albicans and two moulds Trichoderma viride and Aspergillus niger. The single micro-organisms were used at a concentration of about 10^5 microbes per ml. these micro-organisms are standard reference organisms and representative of natural contaminants in many consumer and industrial applications. […] In each test first component (A) was MIT and the second component was phenylethylalcohol (B).

Aspergillus niger = conditions: 30° C., about 10^5 microbes per ml; for MIC: Aspergillus niger
Method: as §1

Trichoderma viride = conditions: 30° C., about 10^5 microbes per ml; for MIC: Trichoderma viride
Method: as §1

Pseudomonas aeruginosa = conditions: 30° C., about 10^5 microbes per ml; for MIC: Pseudomonas aeruginosa
Method: as §1

Proteus Mirabilis = conditions: 30° C., about 10^5 microbes per ml; for MIC: Proteus mirabilis
Method: as §1

Candida albicans = conditions: 30° C., about 10^5 microbes per ml; for MIC: Candida albicans
Method: as §1

Escherichia coli = conditions: 30° C., about 10^5 microbes per ml; for MIC: Escherichia coli
Method: as §1

[1] = MIT alone, Test 1 single, Test 2.1-2.3 parallel samples
[2] = MIT alone, Test 1 single, Test 2.1-2.3 parallel samples, read-out: QA, ppm MIT acting alone, which produced an end point (MIC)
[3] = phenylethylalcohol alone, read-out: QB, ppm phenylethylalcohol acting alone, which produced an end point (MIC)

SMILES: Cn1sccc1=O [MIT, 2-methyl-3-isothiazolone]
- QA, ppm MIT acting alone, which produced an end point (MIC) (Staphylococcus aureus; [1]): 50 ppm
- MIC (Staphylococcus aureus; [2]): 75 µg/mL
- MIC (Aspergillus niger; [2]): 50 µg/mL
- QA, ppm MIT acting alone, which produced an end point (MIC) (Trichoderma viride; [1]): 50 ppm
- MIC (Trichoderma viride; [2]): 75 µg/mL
- QA, ppm MIT acting alone, which produced an end point (MIC) (Pseudomonas aeruginosa; [1]): 25 ppm
- MIC (Pseudomonas aeruginosa; [2]): 50 µg/mL
- QA, ppm MIT acting alone, which produced an end point (MIC) (Proteus Mirabilis; [1]): 25 ppm
- MIC (Proteus Mirabilis; [2]): 50 µg/mL
- MIC (Candida albicans; [2]): 50 µg/mL
- MIC (Escherichia coli; [2]): 25 µg/mL
- QA, ppm MIT acting alone, which produced an end point (MIC) (Escherichia coli; [1]): 50 ppm

- MIC (Staphylococcus aureus; [3]): 2000 µg/mL
- QB, ppm phenylethylalcohol acting alone, which produced an end point (MIC) (Staphylococcus aureus; phenylethylalcohol alone): 1500 ppm
- MIC (Aspergillus niger; [3]): 1500 µg/mL
- QB, ppm phenylethylalcohol acting alone, which produced an end point (MIC) (Aspergillus niger; phenylethylalcohol alone): 2000 ppm
- MIC (Trichoderma viride; [3]): 2000 µg/mL
- QB, ppm phenylethylalcohol acting alone, which produced an end point (MIC) (Trichoderma viride; phenylethylalcohol alone): 3000 ppm
- MIC (Pseudomonas aeruginosa; [3]): 2000 µg/mL
- QB, ppm phenylethylalcohol acting alone, which produced an end point (MIC) (Pseudomonas aeruginosa; phenylethylalcohol alone): 2500 ppm
- MIC (Proteus Mirabilis; [3]): 2000 µg/mL
- MIC (Candida albicans; [3]): 2000 µg/mL
- QB, ppm phenylethylalcohol acting alone, which produced an end point (MIC) (Candida albicans; phenylethylalcohol alone): 2500 ppm and 1500 ppm
- MIC (Escherichia coli; [3]): 2500 µg/mL
- QB, ppm phenylethylalcohol acting alone, which produced an end point (MIC) (Escherichia coli; phenylethylalcohol alone): 2000 ppm
SMILES: OCCc1ccccc1 [phenylethylalcohol]
